Reference: US20260262643A1, “HERBICIDAL BENZOXAZINES” (FMC CORPORATION, priority 2022, published 2026)

How the values were obtained:
kochia [1] = assay: Test A preemergence; format: in vivo, Bassia scoparia; conditions: visual injury after 10 days, 0 to 100 scale, 0 is no effect, 100 is complete control
Outline: (§1)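 Weeds and crops in loam–sand blend were sprayed preemergence onto soil or postemergence at 2–10 cm (one- to two-leaf stage). Test chemicals were in a non-phytotoxic solvent with surfactant. After 10 days in the greenhouse, injury was rated visually against untreated controls on a 0 (no effect) to 100 (complete control) scale.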

corn [2] = assay: Test A postemergence; format: in vivo, Zea mays; conditions: postemergence, 10 days
Outline: as §1

ragweed [3] = assay: Test A postemergence; format: in vivo, Ambrosia artemisiifolia; conditions: postemergence, 10 days
Outline: as §1

horseweed = assay: Test A postemergence; format: in vivo, Erigeron canadensis; conditions: postemergence, 10 days
Outline: as §1

wheat [4] = assay: Test A preemergence; format: in vivo, Triticum aestivum; conditions: visual injury after 10 days, 0 to 100 scale, 0 is no effect, 100 is complete control
Outline: as §1

barnyardgrass [5] = assay: Test A postemergence; format: in vivo, Echinochloa crusgalli; conditions: postemergence, 10 days
Outline: as §1

corn [6] = assay: Test A preemergence; format: in vivo, Zea mays; conditions: visual injury after 10 days, 0 to 100 scale, 0 is no effect, 100 is complete control
Outline: as §1

ducksalad = assay: Test B flooded paddy test; format: in vivo, Heteranthera limosa; conditions: 250 g ai/ha, Flood, 13 days, 0 to 100 scale (0 no effect, 100 complete control)
Outline: (§2)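 Two-leaf plants, 3 cm flood, in-water application, 13-day greenhouse hold, visual 0–100 rating vs untreated checks.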

barnyardgrass [7] = assay: Test A preemergence; format: in vivo, Echinochloa crusgalli; conditions: visual injury after 10 days, 0 to 100 scale, 0 is no effect, 100 is complete control
Outline: as §1

oat, wild [8] = assay: Test A postemergence; format: in vivo, Avena fatua; conditions: postemergence, 10 days
Outline: as §1

foxtail, giant [9] = assay: Test A postemergence; format: in vivo, Setaria faberi; conditions: postemergence, 10 days
Outline: as §1

soybean [10] = assay: Test A preemergence; format: in vivo, Glycine max; conditions: visual injury after 10 days, 0 to 100 scale, 0 is no effect, 100 is complete control
Outline: as §1

ryegrass, Italian [11] = assay: Test A postemergence; format: in vivo, Lolium multiflorum; conditions: postemergence, 10 days
Outline: as §1

galium = assay: Test A postemergence; format: in vivo, Galium aparine; conditions: postemergence, 10 days
Outline: as §1

soybean [12] = assay: Test A postemergence; format: in vivo, Glycine max; conditions: 500 g ai/ha, postemergence, 10 days, visual injury, 0 to 100 scale (0 no effect, 100 complete control)
Outline: as §1

wheat [13] = assay: Test A postemergence; format: in vivo, Triticum aestivum; conditions: postemergence, 10 days
Outline: as §1

pigweed, palmer [14] = assay: Test A postemergence; format: in vivo, Amaranthus palmeri; conditions: postemergence, 10 days
Outline: as §1

blackgrass [15] = assay: Test A postemergence; format: in vivo, Alopecurus myosuroides; conditions: postemergence, 10 days
Outline: as §1

ragweed [16] = assay: Test A preemergence; format: in vivo, Ambrosia artemisiifolia; conditions: visual injury after 10 days, 0 to 100 scale, 0 is no effect, 100 is complete control
Outline: as §1

oat, wild [17] = assay: Test A preemergence; format: in vivo, Avena fatua; conditions: visual injury after 10 days, 0 to 100 scale, 0 is no effect, 100 is complete control
Outline: as §1

barnyardgrass [18] = assay: Test B flooded paddy test; format: in vivo, Echinochloa crus-galli; conditions: 250 g ai/ha, Flood, 13 days, 0 to 100 scale (0 no effect, 100 complete control)
Outline: as §2

blackgrass [19] = assay: Test A preemergence; format: in vivo, Alopecurus myosuroides; conditions: visual injury after 10 days, 0 to 100 scale, 0 is no effect, 100 is complete control
Outline: as §1

foxtail, giant [20] = assay: Test A preemergence; format: in vivo, Setaria faberi; conditions: visual injury after 10 days, 0 to 100 scale, 0 is no effect, 100 is complete control
Outline: as §1

kochia [21] = assay: Test A postemergence; format: in vivo, Bassia scoparia; conditions: postemergence, 10 days
Outline: as §1

sedge, umbrella = assay: Test B flooded paddy test; format: in vivo, Cyperus difformis; conditions: 250 g ai/ha, Flood, 13 days, 0 to 100 scale (0 no effect, 100 complete control)
Outline: as §2

pigweed, palmer [22] = assay: Test A preemergence; format: in vivo, Amaranthus palmeri; conditions: visual injury after 10 days, 0 to 100 scale, 0 is no effect, 100 is complete control
Outline: as §1

ryegrass, Italian [23] = assay: Test A preemergence; format: in vivo, Lolium multiflorum; conditions: visual injury after 10 days, 0 to 100 scale, 0 is no effect, 100 is complete control
Outline: as §1

rice = assay: Test B flooded paddy test; format: in vivo, Oryza sativa; conditions: 250 g ai/ha, Flood, 13 days, 0 to 100 scale (0 no effect, 100 complete control)
Outline: as §2

[24] = 125 g ai/ha, 0 to 100 scale, 0 no effect, 100 complete control
[25] = 500 g ai/ha, visual injury, 0 to 100 scale (0 no effect, 100 complete control)

For CC(C)c1ncn(-c2ccc(OC(F)(F)F)c(C(=O)N3C[C@H](C)Oc4c(Cl)cccc43)c2)n1 [Compound 111], the “Plant response rating, Kochia” value (kochia [1]; 125 g ai/ha) was 80, the “Plant response rating, Kochia” value (kochia [1]; 500 g ai/ha) was 90 and the “Corn plant response rating” value (corn [2]; [24]) was 40. For the same compound, the “Plant response rating, Corn” value (corn [2]; [25]) was 80, the “Ragweed plant response rating” value (ragweed [3]; [24]) was 60 and the “Plant response rating, Ragweed” value (ragweed [3]; [25]) was 70. For the same compound, the “Horseweed plant response rating” value (horseweed; [24]) was 10, the “Plant response rating, Horseweed” value (horseweed; [25]) was 50 and the “Plant response rating, Wheat” value (wheat [4]; 125 g ai/ha) was 60. For the same compound, the “Plant response rating, Wheat” value (wheat [4]; 500 g ai/ha) was 90, the “Barnyardgrass plant response rating” value (barnyardgrass [5]; [24]) was 30 and the “Plant response rating, Barnyardgrass” value (barnyardgrass [5]; [25]) was 80. The “Plant response rating, Corn” value (corn [6]; 125 g ai/ha) was 30, the “Plant response rating, Corn” value (corn [6]; 500 g ai/ha) was 40 and the “Plant response rating, Ducksalad” value (ducksalad) was 65. The “Plant response rating, Barnyardgrass” value (barnyardgrass [7]; 125 g ai/ha) was 90, the “Plant response rating, Barnyardgrass” value (barnyardgrass [7]; 500 g ai/ha) was 100 and the “Oat, Wild plant response rating” value (oat, wild [8]; [24]) was 40. The “Plant response rating, Oat, Wild” value (oat, wild [8]; [25]) was 50, the “Foxtail, Giant plant response rating” value (foxtail, giant [9]; [24]) was 90 and the “Plant response rating, Foxtail, Giant” value (foxtail, giant [9]; [25]) was 90. For the same compound, the “Plant response rating, Soybean” value (soybean [10]; 125 g ai/ha) was 70, the “Plant response rating, Soybean” value (soybean [10]; 500 g ai/ha) was 100 and the “Ryegrass, Italian plant response rating” value (ryegrass, Italian [11]; [24]) was 30. The “Plant response rating, Ryegrass, Italian” value (ryegrass, Italian [11]; [25]) was 60, the “Galium plant response rating” value (galium; [24]) was 100 and the “Plant response rating, Galium” value (galium; [25]) was 100. For the same compound, the “Plant response rating, Soybean” value (soybean [12]) was 100, the “Wheat plant response rating” value (wheat [13]; [24]) was 10 and the “Plant response rating, Wheat” value (wheat [13]; [25]) was 40. For the same compound, the “Pigweed, Palmer plant response rating” value (pigweed, palmer [14]; [24]) was 70, the “Plant response rating, Pigweed, Palmer” value (pigweed, palmer [14]; [25]) was 90 and the “Blackgrass plant response rating” value (blackgrass [15]; [24]) was 40. For the same compound, the “Plant response rating, Blackgrass” value (blackgrass [15]; [25]) was 50, the “Plant response rating, Ragweed” value (ragweed [16]; 125 g ai/ha) was 20 and the “Plant response rating, Ragweed” value (ragweed [16]; 500 g ai/ha) was 90. For the same compound, the “Plant response rating, Oat, Wild” value (oat, wild [17]; 125 g ai/ha) was 70, the “Plant response rating, Oat, Wild” value (oat, wild [17]; 500 g ai/ha) was 90 and the “Plant response rating, Barnyardgrass” value (barnyardgrass [18]) was 55. The “Plant response rating, Blackgrass” value (blackgrass [19]; 125 g ai/ha) was 30, the “Plant response rating, Blackgrass” value (blackgrass [19]; 500 g ai/ha) was 70 and the “Plant response rating, Foxtail, Giant” value (foxtail, giant [20]; 125 g ai/ha) was 100. The “Plant response rating, Foxtail, Giant” value (foxtail, giant [20]; 500 g ai/ha) was 100, the “Kochia plant response rating” value (kochia [21]; [24]) was 80 and the “Plant response rating, Kochia” value (kochia [21]; [25]) was 100. The “Plant response rating, Sedge, Umbrella” value (sedge, umbrella) was 98, the “Plant response rating, Pigweed, Palmer” value (pigweed, palmer [22]; 125 g ai/ha) was 90 and the “Plant response rating, Pigweed, Palmer” value (pigweed, palmer [22]; 500 g ai/ha) was 100. For the same compound, the “Plant response rating, Ryegrass, Italian” value (ryegrass, Italian [23]; 125 g ai/ha) was 70, the “Plant response rating, Ryegrass, Italian” value (ryegrass, Italian [23]; 500 g ai/ha) was 100 and the “Plant response rating, Rice” value (rice) was 0.
